The values below come from patent US11034702B2, “Thienoisoquinolines and their derivatives for the treatment of cancer” (VALORBEC, SOCIÉTÉ EN COMMANDITE, priority 2016, dated 2021).

Experiment [1] deals with HFF1 (fibroblast) non-cancer cells. The experiment can be described thus: IC50 (viability) in HFF1 non-cancer cells. Type of experiment: cell-based. The conditions noted are these: Homo sapiens; HFF-1 non-cancer cells. On the procedure: (§1) 19 variants with different structural modifications have been made. […] In particular, it is shown that C75 causes death in multiple cancer cells with IC50 values in the 100 nM range, including breast cancers (MCF7, BT549), lung cancer (A549), colorectal cancer (HCT116) in addition to HeLa cells (cervical cancer).

Experiment [2] has as its system HCT116 (colorectal cancer) cells. The experiment can be described thus: IC50 (cell death) in HCT116 cells. Type of experiment: cell-based. The conditions noted are these: Homo sapiens, HCT-116; stated jointly for MCF7, BT549, A549, HCT116 and HeLa; HCT116 not in Table 3; read-out: IC50 values (death in multiple cancer cells). On the procedure: as §1
The test system of experiment [3] is HeLa cells. The experiment can be described thus: Mitotic arrest (percentage of cells in mitosis) in HeLa cells. Type of experiment: cell-based, human. On the procedure: (§2) There were more rounded mitotic cells after C75 treatment in comparison to the control. FIG. 1B) is a line graph showing the percentage of HeLa and HFF1 cells in mitosis after treatment with various concentrations of C75 for 8 hours. The bars indicate standard deviation. FIG. 1C) is a series of images showing cells that were fixed and co-stained for tubulin (microtubules) and DAPI (DNA). Treatment of HeLa cells with 300 nM C75 caused the mitotic spindles to be disorganized, while they were not affected in HFF1 cells. […] The scale bar for the cells is 10 μm. FIG. 1D) is a cartoon schematic showing the key features of a metaphase cell.
(§3) FIG. 2A) is a line graph showing the percentage of HCT116 (p53−/−) cells, A549 cells, HeLa cells and H1299 cells in mitosis after treatment with various concentrations of C75 for one population doubling time. All of the cell lines show an increase in the proportion of mitotic cells after treatment with 200 nM C75. The bars indicate standard deviation. […] While the mitotic spindles were not dramatically altered by C75 in HFF1 cells, they were monopolar (as shown) or fragmented in the other cell types. […] The mitotic spindles were more strongly fragmented after C75 treatment in these cells vs. the cells in FIG. 2B). […] While mitotic spindles recovered bipolarity after removing nocodazole, they remained multipolar after removing C75. FIG. 2F) is a series of time-lapse images of a live HeLa cell expressing GFP:tubulin after treatment with C75 as shown in 2D) and 2E). The scale bar for all cells is 10 μm. FIG. 2G) is a schematic showing the putative target for C75. Healthy cells have two centrosomes that separate and form a bipolar spindle, while cancer cells have aberrant centrosomes that cluster to form ‘pseudo’ bipolar spindles, and C75 may target this process and their integrity.
FIG. 3A) is a line graph showing the percentage of mitotic HeLa or HFF1 cells treated with a range of paclitaxel (Taxol™; tubulin-targeting drug) concentrations+/−C75 as indicated. The bars indicate standard deviation. […]

In experiment [4] the test system is H1299 (non-small cell lung cancer) cells. The experiment can be described thus: Mitotic arrest (percentage of cells in mitosis) in H1299 cells. Type of experiment: cell-based, human. The conditions noted are these: H1299, least responsive line. On the procedure:
as §3, with “Healthy cells have two centrosomes that separate and form a bipolar spindle, while cancer cells have aberrant centrosomes that cluster to form ‘pseudo’ bipolar spindles, and C75 may target this process and their integrity.” left out
(§4) C75 was also tested for efficacy in different cancer cell lines. […] To further assess the role of C75 in affecting centrosomes, HeLa cells were treated with C75 for a short period of time (5 minutes), then C75 was removed and the cells were analyzed for spindle phenotypes (schematic in FIG. 2D). […]

The test system of experiment [5] is HFF1 cells. The experiment can be described thus: Percentage of mitotic HFF1 cells with paclitaxel +/- C75. Type of experiment: cell-based. The source says: FIG. 3A) is a line graph showing the percentage of mitotic HeLa or HFF1 cells treated with a range of paclitaxel (Taxol™; tubulin-targeting drug) concentrations+/−C75 as indicated. The bars indicate standard deviation. FIG. 3B) is a series of bar graphs showing the proportion of HCT116 cells that have monopolar spindles, bipolar spindles with aligned chromosomes, bipolar spindles with misaligned chromosomes and multipolar/fragmented spindles after treatments as shown. Treatments include DMSO (control), varying concentrations of paclitaxel and/or varying concentrations of C75 after 7 hours. While treatment of HCT116 cells with 2.5 nM paclitaxel caused a threshold of mitotic spindle phenotypes, adding increasing concentrations of C75 in combination with 2.5 nM paclitaxel caused the phenotypes to progressively worsen. FIG. 3C) is bar graph showing the average distance between centrosome fragments in HCT116 cells after treatments as shown. While centrosome fragments moved closer together with increased concentrations of paclitaxel, they moved further apart with increased concentrations of C75. […] FIG. 3E) is a line graph showing the percentage of mitotic HeLa or HFF1 cells treated with a range of nocodazole concentrations+/−C75 as indicated. The bars indicate standard deviation. […]

The subject of experiment [6] is HeLa cells. The experiment in a line: Mitotic spindle / centrosome phenotype in HeLa cells (tubulin and DAPI staining, live imaging). Type of experiment: cell-based, human. On the procedure:
as §2, §3
FIG. 3A) is a line graph showing the percentage of mitotic HeLa or HFF1 cells treated with a range of paclitaxel (Taxol™; tubulin-targeting drug) concentrations+/−C75 as indicated. The bars indicate standard deviation. FIG. 3B) is a series of bar graphs showing the proportion of HCT116 cells that have monopolar spindles, bipolar spindles with aligned chromosomes, bipolar spindles with misaligned chromosomes and multipolar/fragmented spindles after treatments as shown. Treatments include DMSO (control), varying concentrations of paclitaxel and/or varying concentrations of C75 after 7 hours. While treatment of HCT116 cells with 2.5 nM paclitaxel caused a threshold of mitotic spindle phenotypes, adding increasing concentrations of C75 in combination with 2.5 nM paclitaxel caused the phenotypes to progressively worsen. FIG. 3C) is bar graph showing the average distance between centrosome fragments in HCT116 cells after treatments as shown. While centrosome fragments moved closer together with increased concentrations of paclitaxel, they moved further apart with increased concentrations of C75. […] FIG. 3E) is a line graph showing the percentage of mitotic HeLa or HFF1 cells treated with a range of nocodazole concentrations+/−C75 as indicated. The bars indicate standard deviation. FIG. 3F) is a series of images showing fixed HeLa cells after treatment with C75+/− nocodazole co-stained for tubulin, γ-tubulin and DNA (DAPI). […] Adding nocodazole to cells treated with 300 nM C75 caused mitotic spindle phenotypes to worsen and appear more similar to those after treatment with 600 nM C75. The scale bar for all cells is 10 μm. FIG. 3G) is a bar graph showing the percentage of phenotypes observed for metaphase HeLa cells treated with nocodazole or C75, or both for 20 minutes (n>15 per treatment).
Spindle fragmentation only occurred after extensive microtubule depolymerization in colchicine-treated cells, while the spindle poles fragmented prior to changes in microtubules after C75 treatment. The scale bar for all cells is 10 μm.
C75 was further tested and found to cause mitotic arrest in HeLa cells. […]

In experiment [7] the test system is BT-549 cells. The experiment in a line: Mitotic spindle phenotype in BT-549 cells. Type of experiment: cell-based, human. The note with it: BT-549, 300 nM, 6-8 hours. The method, then:
as §3, with “Healthy cells have two centrosomes that separate and form a bipolar spindle, while cancer cells have aberrant centrosomes that cluster to form ‘pseudo’ bipolar spindles, and C75 may target this process and their integrity.” left out
as §4

Experiment [8] deals with A549 cells. The experiment in a line: Mitotic spindle phenotype in A549 cells. Type of experiment: cell-based, human. The conditions noted are these: A549, 300 nM, 6-8 hours. On the procedure: as §3, with “Healthy cells have two centrosomes that separate and form a bipolar spindle, while cancer cells have aberrant centrosomes that cluster to form ‘pseudo’ bipolar spindles, and C75 may target this process and their integrity.” left out
as §4

Entries after “also recorded” stand apart in the source; their conditions may differ.

Broadly, the IC50 is the concentration that inhibits the measured activity by half.

As for `COc1ccc(S(=O)(=O)N2Cc3ccccc3-c3sc(Br)cc32)cc1` [Compound C75], the IC50 in experiment [1] is 467 nM; in experiment [2] it was ~100 nM. Also, the “effect of C75 on selectivity of paclitaxel and nocodazole” value in experiment [3] (HeLa vs. HFF1 cells, percentage of mitotic cells, tubulin drug +/- C75) was “enhances the selectivity”. Moreover, the “concentration causing mitotic arrest” value in experiment [3] (HeLa, within one population doubling time) lay in the range of 100 to 200 nM. Moreover, the “selectivity of mitotic arrest, HeLa vs. HFF1” value in experiment [3] (nanomolar concentrations, 8 hours) is recorded as “selectively causes mitotic arrest”. Moreover, the “concentration at which mitotic cells increase” value in experiment [4] is given as 200 nM. The “effect of C75 on non-cancerous cells treated with paclitaxel” value in experiment [5] is on record as “protective effect”. Besides, the mitotic spindle phenotype result in experiment [6] (HeLa, 300 nM) is “spindle organization was perturbed; also recorded: most of the spindles were severely fragmented”; in experiment [6] (HeLa, 750 nM), “Centrosomes were fragmented or declustered and microtubules were completely absent; also recorded: complete fragmentation of the mitotic spindles”; in experiment [7], “most of the spindles were severely fragmented”; in experiment [8], “most of the spindles were severely fragmented”. Moreover, the “spindle phenotype at lower concentrations” value in experiment [6] (HeLa, 8 hours, 30 nM colchicine or 300 nM C75) was “disrupted spindle poles”. Moreover, in experiment [6] (HeLa, 8 hours, 40 or 50 nM colchicine, 400 or 500 nM C75), the “spindle phenotype at higher concentrations” value was “spindle fragmentation prior to extensive loss of microtubules”. Moreover, the “time after exposure until centrosomes fragmented or declustered and microtubules collapsed” value in experiment [6] (live imaging, HeLa GFP:tubulin) is 4 to 6 min. For the same compound, the “time until microtubule polymers grew again” value in experiment [6] (live imaging, HeLa, after wash-out, spindles tri- or multipolar) fell in the range of 20 to 30 min. Also, the “spindle phenotype after drug wash-out” value in experiment [6] (metaphase HeLa, 5 minutes treatment, washed out, imaged after 40 minutes) is reported as “tri- or multipolar spindles formed”. Moreover, in experiment [6] (metaphase HeLa, nocodazole or C75 or both, 20 minutes), the “spindle phenotype, drugs alone vs. together” value is “disorganized and/or fragmented mitotic spindles”.
